# Legend:
# OVCAR-8 = test: NCI60 cell growth and viability: OVCAR-8; format: cell-based; settings: OVCAR-8, Ovarian Cancer, two days
# T-47D = test: NCI60 cell growth and viability: T-47D; format: cell-based; settings: Breast Cancer, two days
# NCI-H226 = format: cell-based; settings: NCI-H226, Non-Small Cell Lung Cancer, two days
# UO-31 = test: NCI60 cell growth and viability: UO-31; format: cell-based; settings: UO-31, Renal Cancer, two days
# HSF1 target gene, Hsp70 = test: Hsp70 transcript in mouse liver and heart tissue, qRT-PCR; format: in vivo; settings: mice, 25 mpk three times per week i.p., vs vehicle, relative to GAPDH, FIG. 6B
# Description: The cells were treated for 96 hours with the indicated concentrations of the compounds of the disclosure and cell viability was measured with the AlamarBlue assay. […]. […] After sacrificing the mice on the last day of the administration, mouse liver and heart tissue was isolated, messenger RNA extracted and the transcript abundance of the HSF1 target gene, Hsp70, was evaluated by qRT-PCR relative to the internal RNA control, GAPDH. The results of the vehicle-treated versus Compound 0017-treated experiments were compared. […]; **=P<0.01 in accordance with one embodiment of the present disclosure.
# NCI-H23 = format: cell-based; settings: NCI-H23, Non-Small Cell Lung Cancer, two days
# MDA-MB-435 = test: NCI60 cell growth and viability: MDA-MB-435; format: cell-based; settings: MDA-MB-435, Melanoma, two days
# SNB-19 = test: NCI60 cell growth and viability: SNB-19; format: cell-based; settings: SNB-19, CNS Cancer, two days
# [1] = tested on: HSF1 regulated transcripts; test: HSF1 regulated transcripts in C4-2 cells; format: cell-based, human; settings: FIG. 4C
# HOP-62 = test: NCI60 cell growth and viability: HOP-62; format: cell-based; settings: HOP-62, Non-Small Cell Lung Cancer, two days
# OVCAR-3 = test: NCI60 cell growth and viability: OVCAR-3
# HL-60(TB) = test: cells; format: cell-based; settings: Leukemia, two days
# HCT-15 = test: NCI60 cell growth and viability: HCT-15; format: cell-based; settings: HCT-15, Colon Cancer, two days
# A498 = test: NCI60 cell growth and viability: A498; format: cell-based; settings: A498, Renal Cancer, two days
# KM12 = test: NCI60 cell growth and viability: KM12; format: cell-based; settings: KM12, Colon Cancer, two days
# SK-MEL-5 = test: NCI60 cell growth and viability: SK-MEL-5; format: cell-based; settings: SK-MEL-5, Melanoma, two days
# SR = test: NCI60 cell growth and viability: SR; format: cell-based; settings: Leukemia, two days
# UACC-257 = test: NCI60 cell growth and viability: UACC-257; format: cell-based; settings: UACC-257, Melanoma, two days
# ACHN = test: NCI60 cell growth and viability: ACHN; format: cell-based; settings: Renal Cancer, two days
# DU-145 = test: NCI60 cell growth and viability: DU-145; format: cell-based; settings: DU-145, Prostate Cancer, two days
# [2] = 7-week Maximal Tolerated Dose (MTD) study in mice; format: in vivo; settings: 25 mpk three times per week, intra-peritoneal, 7 weeks
# [3] = biological target: T1, recombinant HSF1 DNA-binding domain (DBD) (Homo sapiens, UniProt Q00613); test: Differential Scanning Fluorimetry (DSF), HSF1 DBD melting temperature
# T1 sequence (Q00613 15-120): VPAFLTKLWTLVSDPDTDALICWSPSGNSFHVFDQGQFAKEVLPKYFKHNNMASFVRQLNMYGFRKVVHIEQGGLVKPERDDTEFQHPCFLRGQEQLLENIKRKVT
# [4] = Homo sapiens, 48 h, read-out: log10 [GI50 (M)] (converted)
# [5] = Homo sapiens, 48 h, read-out: log10 [LC50 (M)] (converted)
smiles,measurement,setting,value
"O=C(Nc1ccc(F)cc1)Nc1ccc(Cl)c([N+](=O)[O-])c1 [Compound 0017, 1-(4-chloro-3-nitrophenyl)-3-(4-fluorophenyl)urea]",GI50,OVCAR-8; [4],2.95e-06 M
same,CC50,OVCAR-8; [5],≥ 0.0001 M
same,log10 [TGI (M)],OVCAR-8,−4.82 log10 M
same,log10 [TGI (M)],T-47D,−5.01 log10 M
same,GI50,"T-47D; Homo sapiens, T47D, 48 h, read-out: log10 [GI50 (M)] (converted)",2.19e-06 M
same,CC50,"T-47D; Homo sapiens, T47D, 48 h, read-out: log10 [LC50 (M)] (converted)",5.13e-05 M
same,GI50,NCI-H226; [4],2.29e-06 M
same,LC50,NCI-H226; [5],3.63e-05 M
same,log10 [TGI (M)],NCI-H226,−5.03 log10 M
same,GI50,UO-31; [4],2.69e-06 M
same,CC50,UO-31; [5],3.47e-05 M
same,log10 [TGI (M)],UO-31,−4.97 log10 M
same,Hsp70 transcript abundance in liver and heart tissue,"HSF1 target gene, Hsp70",inhibits expression of the HSF1 target Hsp70
same,GI50,NCI-H23; [4],2.63e-06 M
same,CC50,NCI-H23; [5],4.57e-05 M
same,log10 [TGI (M)],NCI-H23,−4.97 log10 M
same,GI50,MDA-MB-435; [4],3.09e-06 M
same,CC50,MDA-MB-435; [5],4.37e-05 M
same,log10 [TGI (M)],MDA-MB-435,−4.94 log10 M
same,GI50,SNB-19; [4],3.55e-06 M
same,CC50,SNB-19; [5],4.68e-05 M
same,log10 [TGI (M)],SNB-19,−4.84 log10 M
same,HSF1 negatively regulated transcripts,[1],de-repressed
same,expression of HSF1 positively regulated transcripts,[1],dose-dependently repressed
same,log10 [TGI (M)],HOP-62,−4.80 log10 M
same,GI50,HOP-62; [4],3.8e-06 M
same,CC50,HOP-62; [5],5.62e-05 M
same,GI50,"OVCAR-3; Homo sapiens, OVCAR-3, 48 h, read-out: log10 [GI50 (M)] (converted)",3.8e-06 M
same,CC50,"OVCAR-3; Homo sapiens, OVCAR-3, 48 h, read-out: log10 [LC50 (M)] (converted)",9.55e-05 M
same,log10 [TGI (M)],"OVCAR-3; OVCAR-3, Ovarian Cancer, two days",−4.72 log10 M
same,GI50,HL-60(TB); [4],2.51e-06 M
same,CC50,HL-60(TB); [5],≥ 0.0001 M
same,log10 [TGI (M)],HL-60(TB),−5.07 log10 M
same,log10 [TGI (M)],HCT-15,−4.92 log10 M
same,GI50,HCT-15; [4],2.95e-06 M
same,CC50,HCT-15; [5],3.72e-05 M
same,log10 [TGI (M)],A498,−5.24 log10 M
same,GI50,A498; [4],1.82e-06 M
same,CC50,A498; [5],2.34e-05 M
same,GI50,KM12; [4],3.31e-06 M
same,CC50,KM12; [5],9.12e-05 M
same,log10 [TGI (M)],KM12,−4.86 log10 M
same,GI50,SK-MEL-5; [4],1.78e-06 M
same,CC50,SK-MEL-5; [5],5.89e-06 M
same,log10 [TGI (M)],SK-MEL-5,−5.49 log10 M
same,GI50,SR; [4],3.39e-06 M
same,CC50,SR; [5],≥ 0.0001 M
same,log10 [TGI (M)],SR,−4.00 log10 M
same,GI50,UACC-257; [4],2.75e-06 M
same,CC50,UACC-257; [5],3.09e-05 M
same,log10 [TGI (M)],UACC-257,−5.05 log10 M
same,GI50,ACHN; [4],2.95e-06 M
same,CC50,ACHN; [5],6.03e-05 M
same,log10 [TGI (M)],ACHN,−4.96 log10 M
same,log10 [TGI (M)],DU-145,−4.67 log10 M
same,GI50,DU-145; [4],4.47e-06 M
same,CC50,DU-145; [5],≥ 0.0001 M
same,tolerability,[2],well tolerated
same,ΔTm at 25 µM,"[3]; Table 1, 5 μM HSF1 DBD, 25PM Compound, positive = stabilizes, negative = destabilizes HSF1",3 °C
same,binding to HSF1,[3]; thermal denaturation assay,binds HSF1

# Reference: US20240317727A1 (Duke University, priority 2018, published 2024)
